In PMC11297040, “Engineering of a mammalian VMAT2 for cryo-EM analysis results in non-canonical protein folding” (Nature Communications, 2024) one finds Kd and stoichiometry N data, which are given here for three molecules.

In assay [1] the target is T1, HsVMAT2 (Homo sapiens, UniProt Q05940).
T1 construct: gene SLC18A2; full-length; N-terminal His10-BRIL-TEV and C-terminal TEV-BRIL-His10 tags, released by TEV cleavage (called His-tagged in MST); Pichia pastoris GS115; DDM
The experiment in a line: microscale thermophoresis (RED-Tris-NTA labelled protein). Format: binding. The text has this: microscale thermophoresis (RED-Tris-NTA labelled protein) on HsVMAT2 | MST fitting curves of SER binding to HsVMAT2 WT and variants as indicated

A further assay concerns the target T2, OaVMAT2WT (Ovis aries, UniProt A0A6P7DBQ8).
T2 construct: gene JEQ12_011695; full-length wild type; N-terminal His10-BRIL-TEV and C-terminal TEV-BRIL-His10 tags, released by TEV cleavage (called His-tagged in MST); Pichia pastoris GS115; DDM; monomer on crosslinking
Described as above. Type of assay: binding.

A further assay deals with T3, XlVMAT2WT (Xenopus laevis, UniProt A0A1L8FIB7).
T3 construct: gene LOC108696020; full-length wild type, 514 residues, monomer; N-terminal His10-BRIL-TEV and C-terminal TEV-BRIL-His10 tags, released by TEV cleavage (called His-tagged in MST); Pichia pastoris GS115; DDM
The description is as above. Format: binding.

For assay [2], the target named is T4, HsVMAT2 (Homo sapiens, UniProt Q05940, D399A).
T4 construct: gene SLC18A2; full-length; N-terminal His10-BRIL-TEV and C-terminal TEV-BRIL-His10 tags, released by TEV cleavage (called His-tagged in MST); Pichia pastoris GS115; DDM
The description is as above. Type of assay: binding.

For assay [3], the target named is T5, HsVMAT2 (Homo sapiens, UniProt Q05940, L228A).
T5 construct: gene SLC18A2; full-length; N-terminal His10-BRIL-TEV and C-terminal TEV-BRIL-His10 tags, released by TEV cleavage (called His-tagged in MST); Pichia pastoris GS115; DDM
The assay is described as above. Type of assay: binding. The source says:
(§1) microscale thermophoresis (RED-Tris-NTA labelled protein) on HsVMAT2 | L228A, V232A, E312A, Y341A, D399A and Y433A, reduced their binding affinities for serotonin

Assay [4] has as its target T6, HsVMAT2 (Homo sapiens, UniProt Q05940, V232A).
T6 construct: gene SLC18A2; full-length; N-terminal His10-BRIL-TEV and C-terminal TEV-BRIL-His10 tags, released by TEV cleavage (called His-tagged in MST); Pichia pastoris GS115; DDM
The assay is described as above. Format: binding.
Text: as §1

Assay [5] has as its target T7, HsVMAT2 (Homo sapiens, UniProt Q05940, Y341A).
T7 construct: gene SLC18A2; full-length; N-terminal His10-BRIL-TEV and C-terminal TEV-BRIL-His10 tags, released by TEV cleavage (called His-tagged in MST); Pichia pastoris GS115; DDM
The description is as above. Type of assay: binding.
Text: as §1

Assay [6] deals with T8, HsVMAT2 (Homo sapiens, UniProt Q05940, Y433A).
T8 construct: gene SLC18A2; full-length; N-terminal His10-BRIL-TEV and C-terminal TEV-BRIL-His10 tags, released by TEV cleavage (called His-tagged in MST); Pichia pastoris GS115; DDM
The description is as above. Format: binding.
Text: as §1

For assay [7], the target named is OaVMAT2_(TM8/9-BRIL): sheep (Ovis aries) VMAT2 with the TM8/9 loop replaced by BRIL (Ovis aries | not stated). The experiment in a line: cryo-EM structure; single-particle analysis of OaVMAT2_(TM8/9-BRIL) in 20 mM Tris-HCl pH 7.5, 150 mM NaCl, 5 mM beta-mercaptoethanol, 0.4 mM DDM; C2 symmetry imposed; 3.2 A.
The target is the same in assay [8]. Put plainly: cross-linking; ~10 ug purified protein in 20 mM HEPES-Na pH 7.5, 150 mM NaCl, 5 mM beta-mercaptoethanol, 0.4 mM DDM; glutaraldehyde 4, 2 and 1 mM, 10 min, room temperature; SDS-PAGE.

T3 sequence (A0A1L8FIB7 1-514): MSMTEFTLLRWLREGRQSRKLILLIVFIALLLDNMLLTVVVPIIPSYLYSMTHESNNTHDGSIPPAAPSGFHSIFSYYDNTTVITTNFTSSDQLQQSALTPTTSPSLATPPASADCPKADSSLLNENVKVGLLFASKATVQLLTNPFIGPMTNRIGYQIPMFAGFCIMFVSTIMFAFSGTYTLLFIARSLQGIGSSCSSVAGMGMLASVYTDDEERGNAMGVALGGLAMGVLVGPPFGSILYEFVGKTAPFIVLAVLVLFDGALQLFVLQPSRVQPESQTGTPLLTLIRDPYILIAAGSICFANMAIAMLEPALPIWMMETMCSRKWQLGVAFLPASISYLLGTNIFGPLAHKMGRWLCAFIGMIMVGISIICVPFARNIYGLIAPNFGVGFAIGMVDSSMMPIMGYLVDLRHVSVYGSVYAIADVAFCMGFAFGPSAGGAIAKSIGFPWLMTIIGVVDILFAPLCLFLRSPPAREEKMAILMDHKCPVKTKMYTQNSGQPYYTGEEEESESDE
T2 sequence (A0A6P7DBQ8 1-517): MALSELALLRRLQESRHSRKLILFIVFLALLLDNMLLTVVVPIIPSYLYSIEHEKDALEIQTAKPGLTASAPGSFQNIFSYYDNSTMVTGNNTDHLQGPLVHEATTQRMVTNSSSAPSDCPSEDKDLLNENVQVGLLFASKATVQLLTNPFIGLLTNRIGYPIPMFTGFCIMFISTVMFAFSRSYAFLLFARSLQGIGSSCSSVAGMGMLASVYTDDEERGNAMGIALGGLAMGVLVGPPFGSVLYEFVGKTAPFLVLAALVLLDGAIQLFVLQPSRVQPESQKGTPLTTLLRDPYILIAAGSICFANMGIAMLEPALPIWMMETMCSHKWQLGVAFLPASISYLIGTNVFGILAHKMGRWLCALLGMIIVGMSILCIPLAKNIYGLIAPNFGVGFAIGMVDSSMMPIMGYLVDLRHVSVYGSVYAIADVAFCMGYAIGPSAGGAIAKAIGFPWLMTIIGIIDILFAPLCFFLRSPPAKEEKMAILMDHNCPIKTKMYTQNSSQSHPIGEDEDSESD
T4 sequence (Q05940 whole entry D399A): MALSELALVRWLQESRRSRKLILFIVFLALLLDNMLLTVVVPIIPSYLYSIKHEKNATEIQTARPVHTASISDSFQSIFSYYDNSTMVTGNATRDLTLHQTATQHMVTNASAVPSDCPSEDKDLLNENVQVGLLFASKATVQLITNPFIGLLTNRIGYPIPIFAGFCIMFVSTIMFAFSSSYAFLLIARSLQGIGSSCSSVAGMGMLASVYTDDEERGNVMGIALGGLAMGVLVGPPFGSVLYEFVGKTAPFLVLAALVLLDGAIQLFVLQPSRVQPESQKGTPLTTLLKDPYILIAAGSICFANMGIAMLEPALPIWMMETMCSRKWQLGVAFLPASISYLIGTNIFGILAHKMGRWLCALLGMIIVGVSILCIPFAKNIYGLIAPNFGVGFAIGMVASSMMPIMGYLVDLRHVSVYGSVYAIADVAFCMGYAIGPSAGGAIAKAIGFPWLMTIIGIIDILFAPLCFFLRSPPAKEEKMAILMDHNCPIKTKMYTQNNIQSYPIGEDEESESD
T1 sequence (Q05940 whole entry): as the sequence (Q05940 whole entry D399A) above, with A399D counted along it
T8 sequence (Q05940 whole entry Y433A): as the sequence (Q05940 whole entry D399A) above, with A399D, Y433A counted along it
T6 sequence (Q05940 whole entry V232A): as the sequence (Q05940 whole entry D399A) above, with V232A, A399D counted along it
T7 sequence (Q05940 whole entry Y341A): as the sequence (Q05940 whole entry D399A) above, with Y341A, A399D counted along it
T5 sequence (Q05940 whole entry L228A): as the sequence (Q05940 whole entry D399A) above, with L228A, A399D counted along it

A word on the Kd: it is the equilibrium constant for the complex coming apart. `NCCc1c[nH]c2ccc(O)cc12` [serotonin]: the dissociation constant Kd at HsVMAT2 [1] came to 450 ± 50 nM; on OaVMAT2WT, 210 ± 60 nM; at XlVMAT2WT, 430 ± 220 nM; at HsVMAT2 [2], 22100 ± 3600 nM; on HsVMAT2 [3], 3150 ± 550 nM; on HsVMAT2 [4], 3850 ± 1610 nM. The dissociation constant (Kd) came to 810 ± 220 nM on HsVMAT2 [5] and 3910 ± 1300 nM on HsVMAT2 [6].
By stoichiometry N is commonly meant the number of molecules, sites or subunits per partner or assembly. For “OaVMAT2_(TM8/9-BRIL): sheep (Ovis aries) VMAT2 with the TM8/9 loop replaced by BRIL”, the stoichiometry N in [7] and in [8] was 2 each time.
`COC(=O)[C@H]1[C@H]2C[C@@H]3c4[nH]c5cc(OC)ccc5c4CCN3C[C@H]2C[C@@H](OC(=O)c2cc(OC)c(OC)c(OC)c2)[C@@H]1OC` [reserpine]: the Kd on OaVMAT2WT came out at 16 ± 5.7 nM; on XlVMAT2WT it was 17 ± 8.8 nM.
